How the values were obtained:
rabbits' vitreous gel [1] = assay: Vitreous gel content by gel-liquid separation of rabbit vitreous samples; type: in vivo; settings: 2 or 10 mg/kg/d by gavage for 7 months; compared with non-supplement group, ***p<0.001
Experimental: Fifteen young pigmented rabbits weighing 2.3-4.1 kg and aging 2.5-3 years were used in this experiment. At the onset of the investigation, each eye of every rabbit was examined by slit-lamp biomicroscopy and +60 diopter fundus lens through dilated pupils (2% atropine eye drops) to exclude any preexisting abnormalities. After slit-lamp examination, one drop of 0.5% proparacaine hydrochloride was applied for topic anesthesia, and then 0.1 ml of riboflavin (2×10^^−4 M) was injected through a Millipore filter unit into the central vitreous of both eyes, using a 30-gauge needle. All eyes were then irradiated with white light (1.06×10^15 photons sec-1 cm-2) generated by a carousel slide projector without a lens at a distance of 60 cm for 6 hours. During irradiation, the exposed eyes were frequently treated with topical balanced salt solution (BSS) to prevent corneal drying. Their eyes were examined by using slit-lamp biomicroscopy next day, to confirm if they have serious vitreous liquefaction. […] The weight of the vitreous gel was determined, and its percentage was calculated as follows: vitreous gel (%)=(separated vitreous gel wet wt (g)/initial vitreous wet wt (g))×100%.

[2] = tested on: Reactive oxygen species (ROS) of rabbits' lens; assay: Reactive oxygen species quantified by fluorescence spectroscopy using 2',7'-dichlorofluorescein diacetate; type: in vivo, rabbit; settings: 2 or 10 mg/kg/d by gavage for 7 months; compared with non-supplement group, ***p<0.001
Experimental: (§1) Fifteen young pigmented rabbits weighing 2.3-4.1 kg and aging 2.5-3 years were used in this experiment. At the onset of the investigation, each eye of every rabbit was examined by slit-lamp biomicroscopy and +60 diopter fundus lens through dilated pupils (2% atropine eye drops) to exclude any preexisting abnormalities. After slit-lamp examination, one drop of 0.5% proparacaine hydrochloride was applied for topic anesthesia, and then 0.1 ml of riboflavin (2×10^^−4 M) was injected through a Millipore filter unit into the central vitreous of both eyes, using a 30-gauge needle. All eyes were then irradiated with white light (1.06×10^15 photons sec-1 cm-2) generated by a carousel slide projector without a lens at a distance of 60 cm for 6 hours. During irradiation, the exposed eyes were frequently treated with topical balanced salt solution (BSS) to prevent corneal drying. […]
Antioxidant capacity of the lens was measured using an assay based on the ability of the sample to inhibit the oxidation of 2,2′-azino-di-[3-ethylbenzthiazoline sulfonate]+ (ABTS) by metmyoglobin. The amount of ABTS+ produced was measured in terms of the decrease in absorbance caused by the antioxidants in the sample. Reactive oxygen species (ROS) were quantified by fluorescence spectroscopy using 2′,7′-dichlorofluorescein diacetate.

rabbits' vitreous gel [3] = assay: Slit-lamp biomicroscopy of vitreous structure in rabbits with riboflavin/white-light induced vitreous liquefaction; type: in vivo, rabbit; settings: 2 or 10 mg/kg/d by gavage once daily for 7 months, especially in higher dose
Experimental: as §1, with “drying. Their eyes were examined by using slit-lamp biomicroscopy next day, to confirm if they have serious vitreous liquefaction. They were randomly divided into three groups: (1) non-supplement group (Con, n=5); (2) L-ergothioneine supplement group with low dosage (L-ergothioneine, 2 mg/kg/d, n=5); (3) L-ergothioneine supplement group with high dosage (L-ergothioneine, 10 mg/kg/d, n=5). Some […] were administered L-ergothioneine once daily by gavage in normal saline solution for 7 months.” for “drying.”

C[N+](C)(C)[C@@H](Cc1c[nH]c(=S)[nH]1)C(=O)[O-] [L-ergothioneine]
vitreous gel content (%) of the rabbits' eye (FIG. 1) (rabbits' vitreous gel [1]): could alleviate vitreous depolymerization and liquefaction | ROS value of rabbits' lens (FIG. 2) [2]: could scavenge chronic ROS directly and radically | rabbits' vitreous gel observed microscopically (slit-lamp biomicroscopy) (rabbits' vitreous gel [3]): significantly increased

Reference: patent US20250032456A1, “USE OF L-ERGOTHIONEINE TO AMELIORATE AND PREVENT AGE-RELATED VITREOUS DEGENERATION” (NANJING NUTRABUILDING BIO-TECH CO., LTD., priority 2021, published 2025)
